Measurements published in US8835644B2, “Broad spectrum benzothiophene-nitrothiazolide and other antimicrobials” (University of Virginia Patent Foundation, priority 2009, dated 2014).
Values after ≈ are worked out from the molar mass of the structure shown. Like-named read-outs stand apart in the source and are kept apart here.

Key:
[1] = system: H. pylori; assay: MIC testing by broth dilution, H. pylori; type: cell-based, Helicobacter pylori
Method: (§1) A standard broth dilution protocol was used in 96 well microplates containing a standard dilution of the microorganism to be tested in 100 microliters of the appropriate medium. Appropriate medium: E. coli, LB medium; Staphylococcus strains, Trypticase Soy; and for H. pylori and C. jejuni, Brain Heart Infusion. The compounds to be tested were set at 32 μg/ml in 200 microliters in well one and then serially diluted to provide a range from 32 to 0.06. The wells were scored visually at 24 h. The well where there was no growth was recorded as the MIC. Clostridium difficile was tested by agar diffusion and disk diffusion (Kirby Bower) methods under anaerobic conditions on Wilkins Chalgrin agar. In these assays, zone of inhibited growth was measured and compared by relative ratio to the zone recorded for NTZ.
(§2) Representative compounds of the invention were tested in a series of assays against a series of organisms as described above. […] The organisms tested include, C. difficile, H. pylori, C. jejuni, MRSA, S. epidermidis, and E. coli. S. epidermidis and E. coli were tested in the plank and biofilm assay. A disk diffusion assay was also used for C. difficile. Direct PFOR enzyme assays were also performed. All analogues and derivatives were not tested on every organism in every type of assay (the “-” in each table means that it was not tested).

[2] = system: MRSA; assay: MIC testing by broth dilution, MRSA; type: cell-based, Staphylococcus aureus
Method: as §1, §2

[3] = system: C. difficile; assay: Disk diffusion (Kirby Bower), C. difficile; type: cell-based, Clostridium difficile; details: for Disk Diffusion (%) C. difficile: zone of inhibited growth as relative ratio to the zone for NTZ
Method: as §1, §2

[4] = system: S. epidermidis; assay: MIC testing by broth dilution, S. epidermidis plank; type: cell-based, Staphylococcus epidermidis
Method: as §1, §2

[5] = system: E. coli; assay: MIC testing by broth dilution, E. coli plank; type: cell-based, Escherichia coli
Method: as §1, §2

[6] = system: C. jejuni; assay: MIC testing by broth dilution, C. jejuni; type: cell-based, Campylobacter jejuni
Method: as §1, §2

[7] = broth dilution, Brain Heart Infusion, 24 h, read-out: MIC (μM) H. pylori
[8] = broth dilution, Trypticase Soy, 24 h, read-out: MIC (μM) MRSA
[9] = broth dilution, Trypticase Soy, 24 h, read-out: MIC (μM) S. epidermidis Plank
[10] = broth dilution, LB medium, 24 h, read-out: MIC (μM) E. coli Plank
[11] = broth dilution, Brain Heart Infusion, 24 h, read-out: MIC (μM) C. jejuni

**Q.** What does the source list for `O=C(Nc1ncc([N+](=O)[O-])s1)c1cc2ccc(F)cc2s1` [VPC162037]?
**A.** MIC ([1]; Thiophene analogues table, read-out: MIC H. pylori): 3.1 µM (≈ 1 µg/mL); MIC ([2]; Thiophene analogues table, read-out: MIC MRSA): 61.9 µM (≈ 20 µg/mL); Disk Diff (%) C. difficile ([3]; Nitazoxanide = 100, Thiophene analogues table): 70%; MIC ([4]; planktonic, Thiophene analogues table, read-out: MIC S. epidermidis Plank): 49.5 µM (≈ 16 µg/mL); MIC ([5]; planktonic, Thiophene analogues table, read-out: MIC E. coli Plank): 99.0 µM (≈ 32 µg/mL); MIC ([6]; Thiophene analogues table, read-out: MIC C. jejuni): 6.2 µM (≈ 2 µg/mL)

**Q.** Which MIC [1, 7] does the source give for `CC(=O)NCCOc1ccccc1C(=O)Nc1ncc([N+](=O)[O-])s1` [VPC162044] here?
**A.** 1.1 µM (≈ 0.385 µg/mL)

**Q.** And the MIC [2, 8]?
**A.** 91.3 µM (≈ 32 µg/mL)

**Q.** And the “Disk Diffusion (%) C. difficile” value [3]?
**A.** 77%

**Q.** And the MIC [4, 9]?
**A.** 22.8 µM (≈ 7.99 µg/mL)

**Q.** What about the MIC [5, 10] of the same compound?
**A.** 91.3 µM (≈ 32 µg/mL)

**Q.** What about the MIC [6, 11] of the same compound?
**A.** 34.3 µM (≈ 12 µg/mL)

**Q.** With `CS(=O)(=O)NCCOc1ccccc1C(=O)Nc1ncc([N+](=O)[O-])s1` [VPC162045] as the compound, how does the MIC [1, 7] read?
**A.** 0.6 µM (≈ 0.232 µg/mL)

**Q.** And the MIC [2, 8]?
**A.** 82.8 µM (≈ 32 µg/mL)

**Q.** And the “Disk Diffusion (%) C. difficile” value [3]?
**A.** 51%

**Q.** And the MIC [4, 9]?
**A.** 62.1 µM (≈ 24 µg/mL)

**Q.** What about the MIC [5, 10] of the same compound?
**A.** 82.8 µM (≈ 32 µg/mL)

**Q.** And the MIC [6, 11]?
**A.** 51.8 µM (≈ 20 µg/mL)

**Q.** For `CC(C)(C)OC(=O)Nc1ccccc1C(=O)Nc1ncc([N+](=O)[O-])s1` [VPC162047, tert-Butyl 2-(5-nitrothiazol-2-ylcarbamoyl)phenylcarbamate], which MIC ([1]; Helicobacter pylori, 24 h, read-out: MIC (μM) H. pylori) is on record?
**A.** 0.3 µM (≈ 0.109 µg/mL)

**Q.** What about the MIC ([2]; Staphylococcus aureus, MRSA, 24 h, read-out: MIC (μM) MRSA) of the same compound?
**A.** 5.5 µM (≈ 2 µg/mL)

**Q.** And the “Disk Diffusion (%) C. difficile” value [3]?
**A.** 83%

**Q.** What about the MIC ([4]; Staphylococcus epidermidis, 24 h, read-out: MIC (μM) S. epidermidis Plank) of the same compound?
**A.** 5.5 µM (≈ 2 µg/mL)

**Q.** And the MIC ([5]; Escherichia coli, 24 h, read-out: MIC (μM) E. coli Plank)?
**A.** 87.8 µM (≈ 32 µg/mL)

**Q.** What about the MIC ([6]; Campylobacter jejuni, 24 h, read-out: MIC (μM) C. jejuni) of the same compound?
**A.** 27.4 µM (≈ 9.98 µg/mL)

**Q.** Which results are given for `O=C(NCCOc1ccccc1C(=O)Nc1ncc([N+](=O)[O-])s1)Nc1ccccc1` [VPC162048]?
**A.** MIC [1, 7]: 0.4 µM (≈ 0.171 µg/mL); MIC [2, 8]: 74.9 µM (≈ 32 µg/mL); Disk Diffusion (%) C. difficile [3]: 31%; MIC [4, 9]: 74.9 µM (≈ 32 µg/mL); MIC [5, 10]: 74.9 µM (≈ 32 µg/mL); MIC [6, 11]: 74.9 µM (≈ 32 µg/mL)

**Q.** `Nc1ccccc1C(=O)Nc1ncc([N+](=O)[O-])s1` [VPC162055] was tested. Which MIC [1, 7] did it give?
**A.** 2.4 µM (≈ 0.634 µg/mL)

**Q.** And the MIC [2, 8]?
**A.** 121.1 µM (≈ 32 µg/mL)

**Q.** And the “Disk Diffusion (%) C. difficile” value [3]?
**A.** 83%

**Q.** What about the MIC [4, 9] of the same compound?
**A.** 90.8 µM (≈ 24 µg/mL)

**Q.** What about the MIC [5, 10] of the same compound?
**A.** 45.4 µM (≈ 12 µg/mL)

**Q.** And the MIC [6, 11]?
**A.** 11.4 µM (≈ 3.01 µg/mL)

**Q.** How did the MIC [1, 7] turn out when `CC(C)(C)OC(=O)N1CCC(C(=O)NCCOc2ccccc2C(=O)Nc2ncc([N+](=O)[O-])s2)CC1` [VPC162059] was run?
**A.** 0.7 µM (≈ 0.364 µg/mL)

**Q.** And the MIC [2, 8]?
**A.** 61.6 µM (≈ 32 µg/mL)

**Q.** And the “Disk Diffusion (%) C. difficile” value [3]?
**A.** 38%

**Q.** What about the MIC [4, 9] of the same compound?
**A.** 61.6 µM (≈ 32 µg/mL)

**Q.** What about the MIC [5, 10] of the same compound?
**A.** 61.6 µM (≈ 32 µg/mL)

**Q.** What about the MIC [6, 11] of the same compound?
**A.** 61.6 µM (≈ 32 µg/mL)

**Q.** What does the source list for `Cl.NCCCCOc1ccccc1C(=O)Nc1ncc([N+](=O)[O-])s1` [VPC162096HCl]?
**A.** MIC [1, 7]: 2.0 µM; MIC [2, 8]: 85.8 µM; Disk Diffusion (%) C. difficile [3]: 111%; MIC [4, 9]: 42.9 µM; MIC [5, 10]: 85.8 µM; MIC [6, 11]: 5.4 µM

**Q.** With `NCCCCOc1ccccc1C(=O)Nc1ncc([N+](=O)[O-])s1.O=C(O)C(F)(F)F` [VPC162096TFA] as the compound, how does the MIC [1, 7] read?
**A.** 1.7 µM

**Q.** What about the MIC [2, 8] of the same compound?
**A.** 71.0 µM

**Q.** What about the “Disk Diffusion (%) C. difficile” value [3] of the same compound?
**A.** 111%

**Q.** And the MIC [4, 9]?
**A.** 35.5 µM

**Q.** And the MIC [5, 10]?
**A.** 71.0 µM

**Q.** And the MIC [6, 11]?
**A.** 6.7 µM

**Q.** What does the source list for `Cl.NCCCOc1ccccc1C(=O)Nc1ncc([N+](=O)[O-])s1` [VPC162102HCl]?
**A.** MIC [1, 7]: 1.0 µM; MIC [2, 8]: 89.2 µM; Disk Diffusion (%) C. difficile [3]: 74%; MIC [4, 9]: 44.6 µM; MIC [5, 10]: 89.2 µM; MIC [6, 11]: 8.4 µM

**Q.** What does the source list for `NCCCOc1ccccc1C(=O)Nc1ncc([N+](=O)[O-])s1.O=C(O)C(F)(F)F` [VPC162102TFA]?
**A.** MIC [1, 7]: 0.9 µM; MIC [2, 8]: 73.3 µM; Disk Diffusion (%) C. difficile [3]: 79%; MIC [4, 9]: 73.3 µM; MIC [5, 10]: 73.3 µM; MIC [6, 11]: 13.8 µM
